Data as given in patent publication US9931327B2, “Derivatives of 1-phenyl-2-pyridinyl alkyl alcohols as phosphodiesterase inhibitors” (Chiesi Farmaceutici S.p.A., priority 2011, dated 2018).

test system: LPS-induced TNF-α release in peripheral blood mononuclear cells (PBMCs); assay: In vitro determination of PDE4 inhibitory activity in the PBMCs assay (LPS-induced TNF-α release); format: cell-based, human; conditions: PBMC; human PBMCs, LPS 3 ng/ml, 18 hours, TNF-α by ELISA; read-out: PDE4 inhibition (IC50, 50% inhibition of LPS-induced TNF-α release)
In short: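 Cryopreserved human PBMCs (10^5 cells/well) pre-incubated 30 min with compound (10^−12 to 10^−6 M or 10^−3 to 10^−7 M), then stimulated with LPS 3 ng/ml for 18 h at 37 °C. TNF-α in medium by ELISA; IC50 as mean ± 95% confidence limits.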

Compared with `N#Cc1cccc(S(=O)(=O)N2CCS[C@H]2C(=O)O[C@@H](Cc2c(Cl)c[n+]([O-])cc2Cl)c2ccc(OC(F)F)c(OCC3CC3)c2)c1` [Compound 207, 3,5-dichloro-4-((S)-2-((S)-3-(3-cyanophenylsulfonyl)thiazolidine-2-carbonyloxy)-2-(3-(cyclopropylmethoxy)-4-(difluoromethoxy)phenyl)ethyl)pyridine 1-oxide], `O=C(O[C@@H](Cc1c(Cl)c[n+]([O-])cc1Cl)c1ccc(OC(F)F)c(OCC2CC2)c1)[C@@H]1SCCN1S(=O)(=O)c1cccc(CO)c1` [Compound 271, 3,5-dichloro-4-((S)-2-(3-(cyclopropylmethoxy)-4-(difluoromethoxy)phenyl)-2-((S)-3-(3-(hydroxymethyl)phenylsulfonyl)thiazolidine-2-carbonyloxy)ethyl)pyridine 1-oxide] is lower in IC50: 0.1 to 1 nM for the first, under 0.1 nM for the second. The second is the more potent here.

Compared with `N#Cc1cc(S(=O)(=O)N2CCS[C@H]2C(=O)O[C@@H](Cc2c(Cl)c[n+]([O-])cc2Cl)c2ccc(OC(F)F)c(OCC3CC3)c2)ccc1F` [Compound 209, 3,5-dichloro-4-((S)-2-((S)-3-(3-cyano-4-fluorophenylsulfonyl)thiazolidine-2-carbonyloxy)-2-(3-(cyclopropylmethoxy)-4-(difluoromethoxy)phenyl)ethyl)pyridine 1-oxide], `CN1C(=O)Cc2cc(S(=O)(=O)N3CCS[C@H]3C(=O)O[C@@H](Cc3c(Cl)c[n+]([O-])cc3Cl)c3ccc(OC(F)F)c(OCC4CC4)c3)ccc21` [Compound 210, 3,5-dichloro-4-((S)-2-(3-(cyclopropylmethoxy)-4-(difluoromethoxy)phenyl)-2-((S)-3-(1-methyl-2-oxoindolin-5-ylsulfonyl)thiazolidine-2-carbonyloxy)ethyl)pyridine 1-oxide] is lower in IC50: 0.1 to 1 nM for the first, under 0.1 nM for the second.

`CN(C)C(=O)c1cccc(S(=O)(=O)N2CCC[C@@H](C(=O)O[C@@H](Cc3c(Cl)c[n+]([O-])cc3Cl)c3ccc(OC(F)F)c(OCC4CC4)c3)C2)c1` [Compound 228] and `CN(C)C(=O)c1cccc(S(=O)(=O)N2CC(C(=O)O[C@@H](Cc3c(Cl)c[n+]([O-])cc3Cl)c3ccc(OC(F)F)c(OCC4CC4)c3)C2)c1` [Compound 281, (S)-3,5-dichloro-4-(2-(3-(cyclopropylmethoxy)-4-(difluoromethoxy)phenyl)-2-(1-(3-(dimethylcarbamoyl)phenylsulfonyl)azetidine-3-carbonyloxy)ethyl)pyridine 1-oxide] fall in the same range of IC50: 0.1 to 1 nM for the first, 0.1 to 1 nM for the second.

`CNC(=O)c1cc(S(=O)(=O)N2CCS[C@H]2C(=O)O[C@@H](Cc2c(Cl)c[n+]([O-])cc2Cl)c2ccc(OC(F)F)c(OCC3CC3)c2)cn1C` [Compound 241, 3,5-dichloro-4-((S)-2-(3-(cyclopropylmethoxy)-4-(difluoromethoxy)phenyl)-2-((S)-3-(1-methyl-5-(methylcarbamoyl)-1H-pyrrol-3-ylsulfonyl)thiazolidine-2-carbonyloxy)ethyl)pyridine 1-oxide] and `NC(=O)Nc1cccc(S(=O)(=O)N2CCS[C@H]2C(=O)O[C@@H](Cc2c(Cl)c[n+]([O-])cc2Cl)c2ccc(OC(F)F)c(OCC3CC3)c2)c1` [Compound 269, 3,5-dichloro-4-((S)-2-(3-(cyclopropylmethoxy)-4-(difluoromethoxy)phenyl)-2-((S)-3-(3-ureidophenylsulfonyl)thiazolidine-2-carbonyloxy)ethyl)pyridine 1-oxide] cannot be ordered by IC50: under 0.1 nM for the first, under 0.1 nM for the second.

`O=C(O[C@@H](Cc1c(Cl)c[n+]([O-])cc1Cl)c1ccc(OC(F)F)c(OCC2CC2)c1)[C@@H]1SCCN1S(=O)(=O)c1c[nH]c(C(=O)N2CCCC2)c1` [Compound 242, 3,5-dichloro-4-((S)-2-(3-(cyclopropylmethoxy)-4-(difluoromethoxy)phenyl)-2-((S)-3-(5-(pyrrolidine-1-carbonyl)-1H-pyrrol-3-ylsulfonyl)thiazolidine-2-carbonyloxy)ethyl)pyridine 1-oxide] and `O=C(O[C@@H](Cc1c(Cl)c[n+]([O-])cc1Cl)c1ccc(OC(F)F)c(OCC2CC2)c1)[C@@H]1SCCN1S(=O)(=O)CCN1CCOCC1` [Compound 287, 3,5-dichloro-4-((S)-2-(3-(cyclopropylmethoxy)-4-(difluoromethoxy)phenyl)-2-((S)-3-(2-morpholinoethylsulfonyl)thiazolidine-2-carbonyloxy)ethyl)pyridine 1-oxide] cannot be ordered by IC50: under 0.1 nM for the first, under 0.1 nM for the second.

`Cn1ccnc1S(=O)(=O)N1CCS[C@H]1C(=O)O[C@@H](Cc1c(Cl)cncc1Cl)c1ccc(OC(F)F)c(OCC2CC2)c1` [Compound 243, (S)-((S)-1-(3-(cyclopropylmethoxy)-4-(difluoromethoxy)phenyl)-2-(3,5-dichloropyridin-4-yl)ethyl) 3-(1-methyl-1H-imidazol-2-ylsulfonyl)thiazolidine-2-carboxylate] and `CN1CCN(CCS(=O)(=O)N2CCS[C@H]2C(=O)O[C@@H](Cc2c(Cl)c[n+]([O-])cc2Cl)c2ccc(OC(F)F)c(OCC3CC3)c2)CC1` [Compound 288, 3,5-dichloro-4-((S)-2-(3-(cyclopropylmethoxy)-4-(difluoromethoxy)phenyl)-2-((S)-3-(2-(4-methylpiperazin-1-yl)ethylsulfonyl)thiazolidine-2-carbonyloxy)ethyl)pyridine 1-oxide] fall in the same range of IC50: 0.1 to 1 nM for the first, 0.1 to 1 nM for the second.

Compared with `O=C(O[C@@H](Cc1c(Cl)c[n+]([O-])cc1Cl)c1ccc(OC(F)F)c(OCC2CC2)c1)[C@H]1CCCN1S(=O)(=O)c1ccccc1` [Compound 244, 3,5-dichloro-4-((S)-2-(3-(cyclopropylmethoxy)-4-(difluoromethoxy)phenyl)-2-((R)-1-(phenylsulfonyl)pyrrolidine-2-carbonyloxy)ethyl)pyridine 1-oxide], `CN1CCOc2ccc(S(=O)(=O)N3CCC[C@H]3C(=O)O[C@@H](Cc3c(Cl)c[n+]([O-])cc3Cl)c3ccc(OC(F)F)c(OCC4CC4)c3)cc21` [Compound 250, 3,5-dichloro-4-((S)-2-(3-(cyclopropylmethoxy)-4-(difluoromethoxy)phenyl)-2-((S)-1-(4-methyl-3,4-dihydro-2H-benzo[b][1,4]oxazin-6-ylsulfonyl)pyrrolidine-2-carbonyloxy)ethyl)pyridine 1-oxide] is lower in IC50: 1 to 10 nM for the first, under 0.1 nM for the second. The second is the more potent here.

Compared with `Cc1noc2ncc(S(=O)(=O)N3CCC[C@H]3C(=O)O[C@@H](Cc3c(Cl)c[n+]([O-])cc3Cl)c3ccc(OC(F)F)c(OCC4CC4)c3)cc12` [Compound 251, 3,5-dichloro-4-((S)-2-(3-(cyclopropylmethoxy)-4-(difluoromethoxy)phenyl)-2-((S)-1-(3-methylisoxazolo[5,4-b]pyridin-5-ylsulfonyl)pyrrolidine-2-carbonyloxy)ethyl)pyridine 1-oxide], `Cc1noc2ncc(S(=O)(=O)N3CSC[C@H]3C(=O)O[C@@H](Cc3c(Cl)c[n+]([O-])cc3Cl)c3ccc(OC(F)F)c(OCC4CC4)c3)cc12` [Compound 253, 3,5-dichloro-4-((S)-2-(3-(cyclopropylmethoxy)-4-(difluoromethoxy)phenyl)-2-((R)-3-(3-methylisoxazolo[5,4-b]pyridin-5-ylsulfonyl)thiazolidine-4-carbonyloxy)ethyl)pyridine 1-oxide] is higher in IC50: under 0.1 nM for the first, 0.1 to 1 nM for the second. The first is the more potent here.

Compared with `CN1CCOc2ccc(S(=O)(=O)N3CSC[C@H]3C(=O)O[C@@H](Cc3c(Cl)c[n+]([O-])cc3Cl)c3ccc(OC(F)F)c(OCC4CC4)c3)cc21` [Compound 252, 3,5-dichloro-4-((S)-2-(3-(cyclopropylmethoxy)-4-(difluoromethoxy)phenyl)-2-((R)-3-(4-methyl-3,4-dihydro-2H-benzo[b][1,4]oxazin-6-ylsulfonyl)thiazolidine-4-carbonyloxy)ethyl)pyridine 1-oxide], `CN(C)C(=O)c1cccc(CS(=O)(=O)N2CCS[C@H]2C(=O)O[C@@H](Cc2c(Cl)c[n+]([O-])cc2Cl)c2ccc(OC(F)F)c(OCC3CC3)c2)c1` [Compound 295, 3,5-dichloro-4-((S)-2-(3-(cyclopropylmethoxy)-4-(difluoro-methoxy)phenyl)-2-((S)-3-(3-(dimethylcarbamoyl)benzylsulfonyl)-thiazolidine-2-carbonyloxy)ethyl)pyridine 1-oxide] is higher in IC50: under 0.1 nM for the first, 0.1 to 1 nM for the second. The first is the more potent here.

First: CN(C)C(=O)c1cccc(S(=O)(=O)N2CCS[C@H]2C(=O)O[C@@H](Cc2c(Cl)c[n+]([O-])cc2Cl)c2ccc(OC(F)F)c(O)c2)c1 [Compound 263, 3,5-dichloro-4-((S)-2-(4-(difluoromethoxy)-3-hydroxyphenyl)-2-((S)-3-(3-(dimethylcarbamoyl)phenylsulfonyl)thiazolidine-2-carbonyloxy)ethyl)pyridine 1-oxide]
Second: COc1cc([C@H](Cc2c(Cl)c[n+]([O-])cc2Cl)OC(=O)[C@@H]2SCCN2S(=O)(=O)c2cccc(C(=O)N(C)C)c2)ccc1OC(F)F [Compound 299, 3,5-dichloro-4-((S)-2-(4-(difluoromethoxy)-3-methoxyphenyl)-2-((S)-3-(3-(dimethylcarbamoyl)phenylsulfonyl)thiazolidine-2-carbonyloxy)ethyl)pyridine 1-oxide]
The IC50 of the first is higher: 1 to 10 nM for the first, under 0.1 nM for the second.

`COc1ccc([C@H](Cc2c(Cl)c[n+]([O-])cc2Cl)OC(=O)[C@@H]2CCCN2S(=O)(=O)c2cccc(C(=O)N(C)C)c2)cc1OC` [Compound 310, 3,5-dichloro-4-((S)-2-(3,4-dimethoxyphenyl)-2-((S)-1-(3-(dimethylcarbamoyl)phenylsulfonyl)pyrrolidine-2-carbonyloxy)ethyl)pyridine 1-oxide] gave an IC50 of under 0.1 nM.
